According to patent US4008219A, “4-Benzazonine derivatives and process for preparation thereof” (Nihon Iyakuhin Kogyo Co., Ltd., priority 1973, dated 1977):
Where a name gives a salt, the structure may show the parent alone.

Tests used:
[1] = tested on: mice of the ddN-series; experiment: Analgesic test, Chemical Stimulus Method (Writhing Method); type: in vivo, mouse; design: scale not given here; conditions: interabdominal injection, comparative value, scale not given
Procedure: (§1) Results of comparative tests where the medicinal effects of compounds of this invention were compared with those of known compounds such as pentazocine and codeine phosphate by employing mice and guinea pigs as the test animals are shown in the following Tables I and II.
Chemical Stimulus Method^1)
(interabdominal injection)
(§2) Tested Animal: mice of the ddN-series, .male., 20 ± 1 experimental
(§3) Conditions: temperature of 24 ± 1° C., relative humidity of 65
^1) R. Koster, M. Anderson and E. J. De Beer, Federation Proceedings, […]

[2] = Acute Toxicity; conditions: in vivo; mouse, intravenous injection
Procedure: as §2, §3

[3] = tested on: mice of the ddN-series; experiment: Analgesic test, Heat Stimulus Method (Hot Plate Method); type: in vivo, mouse; design: reference not given here; conditions: hypodermic injection, comparative value, scale not given
Procedure: as §1
Heat Stimulus Method^2)
as §2, §3
^2) G. Woolfe and A. D. Mac Donald; Journal of Pharmacology and […]

[4] = tested on: mice of the ddN-series; experiment: Analgesic test, Pressure Stimulus Method; type: in vivo, mouse; conditions: hypodermic injection, comparative value, pentazocine 1.0
Procedure: as §1
Pressure Stimulus Method^3)
R (hypodermic injection)
as §2, §3
^3) A. F. Green, P. A. Yound and E. I. Godfrey; British Journal of
Pharmacology and Chemotherapy, 6, 572 (1951)

[5] = tested on: guinea pigs; experiment: Antitussive effect, Mechanical Stimulus Method; type: in vivo, guinea pig; conditions: for ED50: Cavia porcellus, swine hairs inserted into the trachea; for Effect Ratio to Codeine Phosphate, Mechanical Stimulus Method: codeine phosphate = 100
Source text: as §1
(§4) Comparison of Antitusive Effects
Mechanical Stimulus Method^1)
1) Takagi et al modification [Journal of the Pharmaceutical Society of
Japan, 80, 1497 (1960)] of the test method of H. Konzett and E. Rothlin
[Experientia, 10, 472 (1954)], in which urethane was hypodermically
injected (15 mg/Kg) into guinea pigs and swine hairs were inserted into
the trachea to impart stimulus.

[6] = tested on: guinea pigs; experiment: Antitussive effect, Chemical Stimulus Method (SO2 gas); type: in vivo, guinea pig; conditions: for ED50: Cavia porcellus, sc, 0.5 h, read-out: ED50, Chemical Stimulus Method (antitussive); for Effect Ratio to Codeine Phosphate, Chemical Stimulus Method: codeine phosphate = 100
Source text: as §1, §4
2) Takagi et al modification [Journal of Pharmaceutical Society of Japan,
80, 1497 (1960)] of the test method of H. Friebel, C. Reichle and A. V.
Gravenitz [Archiv Fur experimentalle Phathologie und Pharmakologie,
Naunyn-Schmiede-berg's, 224,384 (1955)], in which the test compound was
hypodermically injected into guinea pigs, 30 minutes after the injection
the quinea pigs were put into a desiccator filled with SO2 gas and
kept in the desiccator for 1 minute, then the guinea pigs were put into
another vessel and the degree of coughing was examined.

[7] = Hygroscopicity of the salt; type: physicochemical; conditions: crystalline salt, cis-form
[8] = Solubility in water
[9] = guinea pigs, hypodermic injection, SO2 gas, 1 minute, 30 minutes after injection

Structure (SMILES)	Chemical Stimulus Method (Writhing Method) [1]	LD50 [2]	Heat Stimulus Method (Hot Plate Method) [3]	Pressure Stimulus Method [4]	further results
CC(C)=CCN1CCC2CC(C1)C(O)c1ccccc12 (stereo not shown) [R=H, R1=H, R2=H, CH2R3=drawing 36, R4=OH]	1.2	60 mg/kg	1.2	1.4	–
CN1CCC2CC(C1)C(O)c1ccccc12 (stereo not shown) [R=H, R1=H, R2=H, CH2R3=CH3, R4=OH, 4-methyl-2,3,4,5,6,7-hexahydro-1,6-methano-1H-4-benzazonin-7-ol]	–	–	–	–	ED50 [5]: 9.21 mg/kg; Effect Ratio to Codeine Phosphate, Mechanical Stimulus Method [5]: 157.1; ED50 [6, 9]: 6.58 mg/kg; Effect Ratio to Codeine Phosphate, Chemical Stimulus Method ([6]; guinea pigs, SO2 gas): 201.4
CC1C2CN(C)CCC1(C)c1ccccc1C2O (stereo not shown) [Example 15]	–	–	–	–	hygroscopicity [7]: hygroscopic
COc1ccc2c(c1)C1(C)CCN(CCc3ccccc3)CC(C1)C2O (stereo not shown)	1.6	45 mg/kg	2.2	1.8	–
COc1ccc2c(c1)C1(C)CCN(CCc3ccccc3)CC(C2)C1 (stereo not shown) [R=CH3O, R1=CH3, R2=H, CH2R3=drawing 44, R4=H]	1.5	48 mg/kg	2.0	–	–
CC(C)=CCN1CCC2(C)c3cc(O)ccc3CC1C2C (stereo not shown) [pentazocine, 1,2,3,4,5,6-hexahydro-3-(3-methyl-2-butenyl)-6, 11-dimethyl-8-hydroxy-2,6-methano-3-benzazonine, reference compound]	–	25 mg/kg	–	1.0	–
CCN1CCC2(C)CC(Cc3ccc(OC)cc32)C1 (stereo not shown) [R=CH3O, R1=CH3, R2=H, CH2R3=CH2CH3, R4=H]	0.8	120 mg/kg	2.0	–	–
OC1c2ccccc2C2CCN(CCc3ccccc3)CC1C2 (stereo not shown) [R=H, R1=H, R2=H, CH2R3=drawing 37, R4=OH]	1.8	45 mg/kg	4.5	2.0	–
CC1C2Cc3ccc(O)cc3C1(C)CCN(C)C2 (stereo not shown) [Example 90]	–	–	–	–	hygroscopicity [7]: being hygro-
CCC12CCN(C)CC(C(O)c3ccc(OC)cc31)C2C (stereo not shown) [Example 10, 4,12-dimethyl-1-ethyl-10-methoxy-2,3,4,5,6,7-hexahydro-1,6-methano-1H-4-benzazonin-7-ol]	–	–	–	–	hygroscopicity [7]: very hygroscopic
CC(C)=CCN1CCC2(C)CC(Cc3ccc(O)cc32)C1 (stereo not shown) [R=HO, R1=CH3, R2=H, CH2R3=drawing 43, R4=H]	1.0	40 mg/kg	1.5	–	–
CCC12CCN(C)CC(Cc3ccc(O)cc31)C2C (stereo not shown) [Example 22]	–	–	–	–	hygroscopicity [7]: hygroscopic
COc1ccc2c3c1O[C@H]1[C@@H](O)C=C[C@H]4[C@@H](C2)N(C)CC[C@@]341 [codeine phosphate, reference compound]	–	–	–	–	ED50 [5]: 14.5 mg/kg; ED50 [6, 9]: 13.3 mg/kg
CC(C)=CCN1CCC2(C)CC(C1)C(O)c1ccccc12 (stereo not shown) [R=H, R1=CH3, R2=H, CH2R3=drawing 38, R4=OH]	1.5	25 mg/kg	1.5	1.6	–
COc1ccc2c(c1)C1(C)CCN(C)CC(C2O)C1C (stereo not shown) [Example 12]	–	–	–	–	hygroscopicity [7]: hygroscopic
CN1CCC2CC(Cc3ccccc32)C1 (stereo not shown) [R=H, R1=H, R2=H, CH2R3=CH3, R4=H, 4-methyl-2,3,4,5,6,7-hexahydro-1,6-methano-1H-4-benzazonine]	2.5	20 mg/kg	0.6	–	–
CC(C)=CCN1CCC2CC(Cc3ccccc32)C1 (stereo not shown) [R=H, R1=H, R2=H, CH2R3=drawing 40, R4=H]	1.0	65 mg/kg	1.5	1.4	–
CN1CCC2(C)CC(Cc3ccc(O)cc32)C1 (stereo not shown) [R=HO, R1=CH3, R2=H, CH2R3=CH3, R4=H, 1,4-dimethyl-10-hydroxy-2,3,4,5,6,7-hexahydro-1,6-methano-1H-4-benzazonine]	1.5	75 mg/kg	2.0	–	–

Structure (SMILES)	Chemical Stimulus Method (Writhing Method) [1]	LD50 [2]	Heat Stimulus Method (Hot Plate Method) [3]	Pressure Stimulus Method [4]	further results
C=CCN1CCC2CC(Cc3ccccc32)C1 (stereo not shown) [R=H, R1=H, R2=H, CH2R3=CH2CHCH2, R4=H, 4-allyl-2,3,4,5,6,7-hexahydro-1,6-methano-1H-4-benzazonine]	1.4	45 mg/kg	5.0	1.5	ED50 [5]: 7.42 mg/kg; Effect Ratio to Codeine Phosphate, Mechanical Stimulus Method [5]: 195.0; ED50 [6, 9]: 12.7 mg/kg; Effect Ratio to Codeine Phosphate, Chemical Stimulus Method ([6]; guinea pigs, SO2 gas): 104.7
COc1ccc2c3c1O[C@H]1[C@@H](O)CC[C@H]4[C@@H](C2)N(C)CC[C@@]341 [dihydrocodeine phosphate, reference compound]	–	–	–	–	ED50 [5]: 4.65 mg/kg; ED50 [6]: 2.65 mg/kg
CN1CCC2(C)CC(C1)C(O)c1ccccc12 (stereo not shown) [R=H, R1=CH3, R2=H, CH2R3=CH3, R4=OH, 1,4-dimethyl-2,3,4,5,6,7-hexahydro-1,6-methano-1H-4-benzazonin-7-ol]	0.7	70 mg/kg	1.4	1.2	ED50 [5]: 4.42 mg/kg; Effect Ratio to Codeine Phosphate, Mechanical Stimulus Method [5]: 326.9; ED50 [6, 9]: 1.64 mg/kg; Effect Ratio to Codeine Phosphate, Chemical Stimulus Method ([6]; guinea pigs, SO2 gas): 800.7
CC1C2Cc3ccc(O)cc3C1(C)CCN(C)C2 (stereo not shown) [Example 20]	–	–	–	–	hygroscopicity [7]: hygroscopic
C=CCN1CCC2(C)CC(C1)C(O)c1ccc(OC)cc12 (stereo not shown)	1.4	61 mg/kg	1.6	–	–
c1ccc(CN2CCC3CC(Cc4ccccc43)C2)cc1 (stereo not shown) [R=H, R1=H, R2=H, CH2R3=drawing 42, R4=H]	1.0	120 mg/kg	3.0	–	–
CCN1CCC2(C)CC(Cc3ccc(O)cc32)C1 (stereo not shown) [R=HO, R1=CH3, R2=H, CH2R3=CH2CH3, R4=H]	1.5	80 mg/kg	2.0	–	–
CC(C)CCN1CCC2(C)c3cc(O)ccc3CC(C1)C2C (stereo not shown) [Example 89]	–	–	–	–	hygroscopicity [7]: being hygro-
COc1ccc2c(c1)C1(C)CCN(C)CC(C2)C1 (stereo not shown) [R=CH3O, R1=CH3, R2=H, CH2R3=CH3, R4=H]	0.8	120 mg/kg	2.0	–	–
CCN1CCC2(C)c3cc(OC)ccc3CC(C1)C2C (stereo not shown)	0.8	100 mg/kg	2.0	–	–
COc1ccc2c(c1)C1(C)CCN(C)CC(C1)C2O (stereo not shown) [R=CH3O, R1=CH3, R2=H, CH2R3=CH3, R4=OH, 1,4-dimethyl-10-methoxy-2,3,4,5,6,7-hexahydro-1,6-methano-1H-4-benzazonin-7-ol]	1.5	72 mg/kg	5.0	1.2	ED50 [5]: 13.7 mg/kg; Effect Ratio to Codeine Phosphate, Mechanical Stimulus Method [5]: 105.5; ED50 [6, 9]: 6.06 mg/kg; Effect Ratio to Codeine Phosphate, Chemical Stimulus Method ([6]; guinea pigs, SO2 gas): 218.8
CC1C2Cc3ccccc3C1(C)CCN(C)C2 (stereo not shown) [Example 23]	–	–	–	–	hygroscopicity [7]: hygroscopic
OC1c2ccccc2C2CCN(CCc3ccccc3)CC1C2 (stereo not shown) [Example 59, hydrobromide]	–	–	–	–	solubility in water [8]: water-soluble
CC(C)CCN1CCC2(C)CC(Cc3ccc(O)cc32)C1 (stereo not shown) [R=HO, R1=CH3, R2=H, CH2R3=drawing 45, R4=H]	1.0	40 mg/kg	1.5	–	–
CC1C2CN(C)CCC1(C)c1ccccc1C2O (stereo not shown) [R=H, R1=CH3, R2=CH3, CH2R3=CH3, R4=OH]	1.6	30 mg/kg	2.0	1.5	–
CC1C2Cc3ccc(O)cc3C1(C)CCN(CCc1ccccc1)C2 (stereo not shown) [Example 87]	–	–	–	–	hygroscopicity [7]: being hygro-
C=CCN1CCC2(C)CC(C1)C(O)c1ccccc12 (stereo not shown) [R=H, R1=CH3, R2=H, CH2R3=CH2CHCH2, R4=OH]	1.8	55 mg/kg	1.5	2.0	–
c1ccc(CCN2CCC3CC(Cc4ccccc43)C2)cc1 (stereo not shown) [R=H, R1=H, R2=H, CH2R3=drawing 41, R4=H]	0.8	35 mg/kg	5.0	2.0	–
